From patent US20230075856A1, “CYCLIC SULFAMIDE COMPOUNDS FOR TREATMENT OF HBV” (Assembly Biosciences, Inc., priority 2018, published 2023)
Like-named read-outs stand apart in the source and are kept apart here.

Tested on: HBV viral load production from HepAD38 cells
Test: Viral production from HepAD38 cells: viral load in supernatant by qPCR of the HBV core sequence
Format: cell-based
Conditions: 5 days incubation, qPCR of supernatant HBV DNA vs DMSO control, read-out: viral load lowering EC50 (Activity)
In short: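 Viral load was measured by qPCR of the HBV core region in supernatant, quantified against DNA standards and compared with DMSO wells. Cells (50,000/well, tetracycline withdrawn, 2% FBS) received compound from 10 μM final for 5 days; EC50 from four-parameter nonlinear regression.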

[1] = Hepatitis B virus, HePAD38, 120 h

Molecule | EC50 [1] [nM] | EC50 [nM]
CN(C)CCCCc1cnn(-c2ncc(CNC(=O)C3CC(C(=O)Nc4ccc(F)c(Cl)c4)N(C)S(=O)(=O)N3)s2)c1 (stereo not shown) [Compound 1197] | 100 to 10000 | –
CN1C(C(=O)Nc2ccc(F)c(Cl)c2)CC(C(=O)NCc2cnc(Cl)s2)NS1(=O)=O (stereo not shown) [Compound 1199] | < 50 | –
CN1C(C(=O)Nc2ccc(F)c(Cl)c2)CC(C(=O)NCc2nc(C(F)(F)F)cs2)NS1(=O)=O (stereo not shown) [Compound 1202] | 100 to 10000 | –
CN1C(C(=O)Nc2ccc(F)c(Cl)c2)CC(C(=O)NCc2cnc(C3=CCC(C)(C)C3)s2)NS1(=O)=O (stereo not shown) [Compound 1205] | 100 to 10000 | –
N3-(3-chloro-4-fluoro-phenyl)-2-methyl-1,1-(trifluoromethyl)phenyl]ethyl]-1,2,6-thiadiazinane-3,5-dicarboxamide [493-S-ISOMER-B] | – | 100 to 10000
N3-(3-chloro-4-fluoro-phenyl)-2-methyl-1,1-dioxo-N5-[(5-phenylisoxazol-3-yl)methyl]- [1149-ISOMER-B] | – | 100 to 10000
N3-(3-chloro-4-fluoro-phenyl)-N5-[(S)-(2-chlorothiazol-5-yl)-phenyl-methyl]-2-methyl-1,1-dioxo-1,2,6-thiadiazinane-3,5- [1066-ISOMER-B] | – | < 50
